Test results from PubChem BioAssay (NCI).
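Briefly, cells in 96-well plates were exposed to five compound concentrations for 48 h, and endpoints were estimated by linear interpolation. TGI: total growth inhibition.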

Experiments:
Assay in all cases: inhibition of tumour cell growth, NCI panel, 48 h
[1] = test system: NCI-H226 lung
[2] = test system: MCF7 breast
[3] = test system: HCT-15 colon
[4] = test system: SF-268 CNS
[5] = test system: MDA-MB-231 breast
[6] = test system: NCI-H23 lung
[7] = test system: 786-0 renal
[8] = test system: MDA-N
[9] = test system: CAKI-1 renal
[10] = test system: OVCAR-4 ovarian
[11] = test system: HL-60(TB) leukemia
[12] = test system: UO-31 renal
[13] = test system: BT-549 breast
[14] = test system: TK-10 renal
[15] = test system: HT29 colon
[16] = test system: OVCAR-3 ovarian
[17] = test system: NCI-H522 lung
[18] = test system: HS 578T breast
[19] = test system: RXF 393 renal
[20] = test system: KM12 colon
[21] = test system: HCT-116 colon
[22] = test system: M14 melanoma
[23] = test system: MALME-3M melanoma
[24] = test system: SW-620 colon
[25] = test system: SK-MEL-2 melanoma
[26] = test system: EKVX NSCLC
[27] = test system: HOP-92 NSCLC
[28] = test system: NCI/ADR-RES ovarian
[29] = test system: COLO 205 colon
[30] = test system: UACC-257 melanoma
[31] = test system: SK-MEL-5 melanoma
[32] = test system: SR leukemia
[33] = test system: A549 NSCLC
[34] = test system: UACC-62 melanoma
[35] = test system: IGROV1 ovarian
[36] = test system: OVCAR-8 ovarian
[37] = test system: SK-OV-3 ovarian
[38] = test system: K-562 leukemia
[39] = test system: T-47D breast
[40] = test system: ACHN renal
[41] = test system: PC-3 prostate
[42] = test system: DU-145 prostate
[43] = test system: OVCAR-5 ovarian
[44] = test system: MOLT-4 leukemia
[45] = test system: SNB-19 CNS
[46] = test system: LOX IMVI melanoma
[47] = test system: CCRF-CEM leukemia
[48] = test system: SF-295 CNS
[49] = test system: SK-MEL-28 melanoma
[50] = test system: RPMI-8226 leukemia
[51] = test system: SNB-75 CNS
[52] = test system: MDA-MB-435
[53] = test system: HCC-2998 colon
[54] = test system: U251 CNS
[55] = test system: SF-539 CNS
[56] = test system: SN12C renal
[57] = test system: HOP-62 NSCLC
[58] = test system: NCI-H460 lung
[59] = test system: A498 renal

Measured: TGI

N#CCCC1C(C#N)C2CC1C1C3C=CC(C3)C21 (stereo not given)
not listed: [54] | [55] | [56] | [57] | [58] | [59]
> 100 µM: all other assays above

S=c1nc(-c2nc(=S)[nH]c3c2CCCCCCCCCC3)c2c([nH]1)CCCCCCCCCC2
not listed: [47] | [50]
> 100 µM: all other assays above
